What is called IC50 is the concentration needed to halve the response being measured.

Data on 6 compounds can be found in patent US12606561B2, “Substituted pyrazolo[1,5-a][1,3,5]triazines as CDK inhibitors” (QURIENT CO., LTD., priority 2018, dated 2026).

The target of one experiment is T1, CDK1/Cyclin B (Homo sapiens, UniProt P06493).
T1 construct: purchased Invitrogen PR4768C
The experiment can be described thus: Enzymatic assay for CDK1 (LANCE Ultra kinase assay, FRET based). Type of experiment: biochemical. The note with it: ATP at Km; read-out: CDK1 enzymatic activity IC50. The procedure:
(§1) Enzymatic Binding Assay Protocol for CDK1, CDK2, CDK5 and CDK7
(§2) Inhibition activity of the respective compound on CDK kinase under Km value of ATP was tested in FRET based The LANCE® Ultra kinase assay (Perkin Elmer), which uses a ULight™-labeled peptide substrate and an appropriate Europium-labeled anti-phospho-antibody. […] After 1 min centrifugation at 1000 rpm, purified CDKs/Cyclin complex were added with the following concentrations respectively. […] Data were analyzed using XL Fit software.
For orientation: TR-FRET usually uses a lanthanide donor and a delayed reading to cut background.

The next experiment concerns the target T2, CDK2/Cyclin A (Homo sapiens, UniProt P24941).
T2 construct: purchased Invitrogen PV6290
The experiment can be described thus: Enzymatic assay for CDK2 (LANCE Ultra kinase assay, FRET based). Type of experiment: biochemical. The note with it: ATP at Km. The procedure: as §1
(§3) Inhibition activity of the respective compound on CDK kinase under Km value of ATP was tested in FRET based The LANCE® Ultra kinase assay (Perkin Elmer), which uses a ULight™-labeled peptide substrate and an appropriate Europium-labeled anti-phospho-antibody. Test compounds were made with DMSO solutions, and then 4-fold serial dilutions for 8 doses were prepared using automated liquid handler (POD™ 810, Labcyte) and 80 nL/well of diluted compound solutions were added into the 384-well plates (Greiner, Cat #784075). And then 68 nM of ULight-MBP peptide (Perkin Elmer, Cat #TRF0109-M) and 5 ul/well of ATP (Sigma, Cat #A7699) were added to the plate. After 1 min centrifugation at 1000 rpm, purified CDKs/Cyclin complex were added with the following concentrations respectively. 24 uM for CDK1/Cyclin B (Invitrogen, Cat #PR4768C), 22 uM for CDK2/Cyclin A (Invitrogen, Cat #PV6290), 10 uM for CDK5/p25 (Invitrogen, Cat #PR8543B) and […] for CDK7/Cyclin H/MNAT1 (Invitrogen, Cat #PR6749B) were added to each corresponding plate for CDK1, CDK2, CDK5 and CDK7. Incubate at 23° C. for 60 min and then Eu-labeled anti-phospho-Myelin Basic Protein (PE, Cat #TRF0201-M) and EDTA (Invitrogen, Cat #15575038) mixture in Lance Detection Buffer (Perkin Elmer, Cat #CR97100) was added in each well. After additional incubation at 23° C. for 60 min, test articles were measured the fluorescence using Envision leader (Perkin Elmer, USA) [Laser as excitation light; […] as the first and the second emission filter]. Data were analyzed using XL Fit software.

In the next experiment the target is T3, CDK5/p25 (Homo sapiens, UniProt Q00535).
T3 construct: purchased Invitrogen PR8543B
In words: Enzymatic assay for CDK5 (LANCE Ultra kinase assay, FRET based). The note with it: ATP at Km. Type of experiment: biochemical. The procedure: as §1, §3

A further experiment deals with T4, CDK7/Cyclin H/MNAT1 (Homo sapiens, UniProt P50613).
T4 construct: purchased Invitrogen PR6749B
The experiment can be described thus: Enzymatic assay for CDK7 (LANCE Ultra kinase assay, FRET based). Type of experiment: biochemical. The note with it: for IC50: ATP at Km. The procedure: as §1, §2

The next experiment relates to A2780. In words: A2780 viability assay (CellTiter-Glo, 72 hours). The note with it: Homo sapiens; A2780 cells. Type of experiment: cell-based. How it is done: Human […] cell line, MV4-11_(ATCC, Cat #CRL-9591), NSCLC (Non-small cell lung cancer) cell line H460 (ATCC, Cat #HTB-177), A2780 (ECACC, Cat #93112519) and OVCAR-3(ATCC, Cat #HTB-161) were obtained from ATCC. Cells were grown in RPMI-1640 media (Invitrogen, Cat #22400-089) supplemented with 10% FBS (Invitrogen, Cat #10099141) and 1% penicillin/streptomycin (Invitrogen, Cat #15070063) and cultured at 37° C., 5% CO2 in a humidified chamber. All cell lines were routinely tested for mycoplasma.
To effect of the CDK7 inhibitor to inhibit the growth of target cancer cells, viability assay were conducted a 72 hour time period. Briefly, the candidate cell line was plated in 96 well plate at the following density of cells respectively. 1×10^4 cells/well for MV4-11, 5×10^3 for H460 and OVCAR-3, and 1×10^3 for A2780. After 24 hours, the cells were treated with various concentrations of the compound (ranging from 0.0015 uM to 10 uM). DMSO solvent without compound served as a control and final DMSO concentration lest than 0.1%. After 72 hours of incubation at 37° C., 5% CO2 incubator, cells were analyzed for the viability using the CellTiter-Glo Luminescent Cell Viability Assay (Promega, Cat #G7570). All viability assays were performed in duplicate and Luminescence was read using an Envision (Perkin Elmer, USA). Data was analyzed using XLfit software.
A general note: In ATP-based viability assays light output follows the ATP content of the culture.

T3 sequence (Q00535 whole entry): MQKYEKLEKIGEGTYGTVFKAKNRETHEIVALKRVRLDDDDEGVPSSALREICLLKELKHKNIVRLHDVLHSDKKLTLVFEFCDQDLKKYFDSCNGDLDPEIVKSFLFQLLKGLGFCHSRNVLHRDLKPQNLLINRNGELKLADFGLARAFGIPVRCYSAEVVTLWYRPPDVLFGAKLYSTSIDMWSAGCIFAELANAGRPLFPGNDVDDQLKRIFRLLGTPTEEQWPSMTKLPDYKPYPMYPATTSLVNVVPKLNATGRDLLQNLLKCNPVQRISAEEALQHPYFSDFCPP
T3 sequence (Q15078 99-307 partner limits assumed): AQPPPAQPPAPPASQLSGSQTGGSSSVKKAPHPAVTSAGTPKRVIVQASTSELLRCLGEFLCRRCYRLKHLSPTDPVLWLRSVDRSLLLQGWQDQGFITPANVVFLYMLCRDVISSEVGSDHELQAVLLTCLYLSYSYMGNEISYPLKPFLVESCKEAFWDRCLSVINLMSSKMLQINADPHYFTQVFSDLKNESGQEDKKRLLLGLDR
T4 sequence (P50613 whole entry): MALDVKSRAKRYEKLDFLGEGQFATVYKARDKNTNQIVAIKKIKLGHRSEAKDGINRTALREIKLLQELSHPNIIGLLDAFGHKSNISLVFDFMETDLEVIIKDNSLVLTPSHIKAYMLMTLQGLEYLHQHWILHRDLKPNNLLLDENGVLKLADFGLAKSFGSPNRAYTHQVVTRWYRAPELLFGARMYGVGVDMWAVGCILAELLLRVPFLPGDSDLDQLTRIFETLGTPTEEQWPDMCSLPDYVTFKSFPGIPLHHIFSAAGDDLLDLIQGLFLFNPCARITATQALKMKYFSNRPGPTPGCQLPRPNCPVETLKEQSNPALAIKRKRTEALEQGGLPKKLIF
T4 sequence (P51946 whole entry partner): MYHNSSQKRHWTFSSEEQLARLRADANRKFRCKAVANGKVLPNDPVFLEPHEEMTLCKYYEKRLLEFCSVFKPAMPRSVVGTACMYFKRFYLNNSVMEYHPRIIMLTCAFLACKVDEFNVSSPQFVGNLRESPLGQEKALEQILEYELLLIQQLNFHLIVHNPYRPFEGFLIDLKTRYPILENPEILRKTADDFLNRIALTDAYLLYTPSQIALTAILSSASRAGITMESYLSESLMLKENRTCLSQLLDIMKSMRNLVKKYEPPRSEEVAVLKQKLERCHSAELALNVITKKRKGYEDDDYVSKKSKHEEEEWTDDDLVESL
T4 sequence (P51948 whole entry partner): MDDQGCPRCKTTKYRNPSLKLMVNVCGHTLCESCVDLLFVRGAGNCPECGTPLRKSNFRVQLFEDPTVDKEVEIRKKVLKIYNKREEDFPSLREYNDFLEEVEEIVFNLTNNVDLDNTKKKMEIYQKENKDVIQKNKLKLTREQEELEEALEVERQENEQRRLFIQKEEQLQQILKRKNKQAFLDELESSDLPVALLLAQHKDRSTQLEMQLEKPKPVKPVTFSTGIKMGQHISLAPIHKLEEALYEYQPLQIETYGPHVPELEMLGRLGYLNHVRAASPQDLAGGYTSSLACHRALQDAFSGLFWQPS
T1 sequence (P06493 whole entry): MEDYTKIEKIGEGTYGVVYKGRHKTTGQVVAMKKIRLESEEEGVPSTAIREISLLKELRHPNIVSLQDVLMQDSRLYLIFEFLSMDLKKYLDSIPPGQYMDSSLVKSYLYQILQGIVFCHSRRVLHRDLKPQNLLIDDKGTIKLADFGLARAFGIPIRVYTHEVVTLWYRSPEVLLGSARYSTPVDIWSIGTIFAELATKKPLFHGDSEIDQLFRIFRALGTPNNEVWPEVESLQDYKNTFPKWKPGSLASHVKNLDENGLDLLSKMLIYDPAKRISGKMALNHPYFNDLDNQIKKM
T1 sequence (P14635 whole entry partner): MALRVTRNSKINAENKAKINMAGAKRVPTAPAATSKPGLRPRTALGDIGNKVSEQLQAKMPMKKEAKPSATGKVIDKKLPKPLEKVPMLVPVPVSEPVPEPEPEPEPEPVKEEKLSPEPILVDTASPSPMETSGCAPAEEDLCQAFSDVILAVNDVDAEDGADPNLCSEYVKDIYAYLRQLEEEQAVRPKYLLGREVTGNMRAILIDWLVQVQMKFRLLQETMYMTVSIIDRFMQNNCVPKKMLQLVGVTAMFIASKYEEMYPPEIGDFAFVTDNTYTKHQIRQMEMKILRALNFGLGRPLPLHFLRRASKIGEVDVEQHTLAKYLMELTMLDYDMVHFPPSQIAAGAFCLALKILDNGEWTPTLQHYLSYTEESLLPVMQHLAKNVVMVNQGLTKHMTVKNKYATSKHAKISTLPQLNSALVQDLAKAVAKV

With `CC(C)c1cnn2c(NCc3ccccc3-c3nccc4cc(NC(=O)/C=C/CN(C)C)ccc34)cc(NC3CCC(F)(F)CC3)nc12` [Compound 185], the IC50 at CDK1/Cyclin B was more than 1000 nM; against CDK2/Cyclin A, more than 1000 nM; on CDK5/p25 it was more than 1000 nM; against CDK7/Cyclin H/MNAT1 it was less than 100 nM; with A2780, less than 1000 nM. For the same compound, the “CDK1/CDK7: Selectivity of CDK7 inhibition over CDK1 inhibition” value at CDK7/Cyclin H/MNAT1 was “A (A indicates [fold] > 500)”. The “CDK2/CDK7: Selectivity of CDK7 inhibition over CDK2 inhibition” value on CDK7/Cyclin H/MNAT1 was “A (A indicates [fold] > 500)”. Further, on CDK7/Cyclin H/MNAT1, the “CDK5/CDK7: Selectivity of CDK7 inhibition over CDK5 inhibition” value is “A (A indicates [fold] > 500)”.
`C=CC(=O)Nc1ccc2c(-c3ccccc3CNc3cc(NC4CCC(F)(F)CC4)nc4c(C(C)C)cnn34)nccc2c1` [Compound 186]: the concentration for half-maximal inhibition (IC50) on CDK1/Cyclin B was more than 1000 nM; on CDK2/Cyclin A, more than 1000 nM; against CDK5/p25 it was more than 1000 nM; at CDK7/Cyclin H/MNAT1, less than 100 nM; in the experiment with A2780, less than 1000 nM. In addition, the “CDK1/CDK7: Selectivity of CDK7 inhibition over CDK1 inhibition” value at CDK7/Cyclin H/MNAT1 is “A (A indicates [fold] > 500)”. At CDK7/Cyclin H/MNAT1, the “CDK2/CDK7: Selectivity of CDK7 inhibition over CDK2 inhibition” value is “A (A indicates [fold] > 500)”. In addition, the “CDK5/CDK7: Selectivity of CDK7 inhibition over CDK5 inhibition” value on CDK7/Cyclin H/MNAT1 was “A (A indicates [fold] > 500)”.
For `C=CC(=O)Nc1ccc2c(-c3ccccc3CNc3cc(Nc4cccc(OC5CCC(C)(C)NC5)c4)nc4c(C(C)C)cnn34)nccc2c1` (centres unmarked) [Compound 187], the IC50 is more than 1000 nM on CDK1/Cyclin B; more than 1000 nM against CDK2/Cyclin A; more than 1000 nM against CDK5/p25; less than 100 nM against CDK7/Cyclin H/MNAT1; less than 1000 nM in the experiment with A2780. The “CDK1/CDK7: Selectivity of CDK7 inhibition over CDK1 inhibition” value at CDK7/Cyclin H/MNAT1 is “A (A indicates [fold] > 500)”. For the same compound, the “CDK2/CDK7: Selectivity of CDK7 inhibition over CDK2 inhibition” value at CDK7/Cyclin H/MNAT1 is “A (A indicates [fold] > 500)”. For the same compound, the “CDK5/CDK7: Selectivity of CDK7 inhibition over CDK5 inhibition” value at CDK7/Cyclin H/MNAT1 is “A (A indicates [fold] > 500)”.
Take `C=CC(=O)Nc1ccc2c(-c3ccccc3CNc3nc(Nc4cccnc4)nc4c(C(C)C)cnn34)nccc2c1` [Compound 188]: the IC50 on CDK1/Cyclin B is more than 1000 nM; at CDK2/Cyclin A, more than 1000 nM; on CDK5/p25, more than 1000 nM; on CDK7/Cyclin H/MNAT1, less than 100 nM; in the experiment with A2780, less than 1000 nM. The “CDK1/CDK7: Selectivity of CDK7 inhibition over CDK1 inhibition” value at CDK7/Cyclin H/MNAT1 is “A (A indicates [fold] > 500)”. Further, the “CDK2/CDK7: Selectivity of CDK7 inhibition over CDK2 inhibition” value at CDK7/Cyclin H/MNAT1 was “A (A indicates [fold] > 500)”. The “CDK5/CDK7: Selectivity of CDK7 inhibition over CDK5 inhibition” value at CDK7/Cyclin H/MNAT1 was “A (A indicates [fold] > 500)”.
Consider `C=CC(=O)Nc1ccc2c(-c3ccccc3CNc3nc(Nc4ccncc4)nc4c(C(C)C)cnn34)nccc2c1` [Compound 189], for which the concentration for half-maximal inhibition (IC50) on CDK1/Cyclin B is more than 1000 nM; against CDK2/Cyclin A, more than 1000 nM; at CDK5/p25, more than 1000 nM; against CDK7/Cyclin H/MNAT1, 100 to 1000 nM; in the experiment on A2780, 1000 to 10000 nM. For the same compound, the “CDK1/CDK7: Selectivity of CDK7 inhibition over CDK1 inhibition” value at CDK7/Cyclin H/MNAT1 was “B (B indicates 50 < [fold] ≤ 500)”. For the same compound, the “CDK2/CDK7: Selectivity of CDK7 inhibition over CDK2 inhibition” value on CDK7/Cyclin H/MNAT1 was “B (B indicates 50 < [fold] ≤ 500)”. Further, on CDK7/Cyclin H/MNAT1, the “CDK5/CDK7: Selectivity of CDK7 inhibition over CDK5 inhibition” value was “B (B indicates 50 < [fold] ≤ 500)”.
Regarding `CC(C)c1cnn2c(NCc3ccccc3-c3cc4cccc(NC(=O)/C=C/CN(C)C)c4[nH]3)nc(N3CCC(Nc4nccs4)C3)nc12` (centres unmarked) [Compound 216], at CDK1/Cyclin B, the IC50 was more than 1000 nM. On CDK2/Cyclin A, the half-inhibitory concentration (IC50) was more than 1000 nM. At CDK5/p25, this compound registered an IC50 of more than 1000 nM. Further, at CDK7/Cyclin H/MNAT1, the IC50 lay within 100 to 1000 nM, the “CDK1/CDK7: Selectivity of CDK7 inhibition over CDK1 inhibition” value is “B (B indicates 50 < [fold] ≤ 500)”, the “CDK2/CDK7: Selectivity of CDK7 inhibition over CDK2 inhibition” value is “B (B indicates 50 < [fold] ≤ 500)” and the “CDK5/CDK7: Selectivity of CDK7 inhibition over CDK5 inhibition” value was “B (B indicates 50 < [fold] ≤ 500)”.
